Experimental data published in patent US20240270792A1, “SHORT ANTIMICROBIAL PEPTIDES” (priority 2021, published 2024).
Converted amounts (≈) assume the structure as drawn. Square brackets hold non-standard residues; d marks the D form. Ends that are not written are not given here. Peptide text beside a SMILES is read from it. hPhe = N[C@@H](CCc1ccccc1)C(=O)O; αMeF = C[C@](N)(Cc1ccccc1)C(=O)O

Key:
[1] = Cytotoxicity assay: hemolysis of erythrocytes; assay type: cell-based; conditions: 50% hemolysis, human erythrocytes, 1 h at 37° C., pH 7.4; read-out: LC50 Erythrocytes Human
Method: Hemolytic experiments were performed using human erythrocytes obtained from healthy adult donors (Etablissement Français du sang, Paris, France) according to a previously described protocol (Abbassi et al., “Isolation, characterization and molecular cloning of new temporins from the skin of the North African ranid Pelophylax saharica”, Peptides, 2008, 29: 1526-33).
Briefly, synthetic peptides (1-200 μM, final concentrations) were incubated (100 μL, final volume) with erythrocytes (2×10^7 cells) in Dulbecco's phosphate-buffered saline (pH 7.4) for 1 h at 37° C. After centrifugation (12,000×g, 15 s), the absorbance of the supernatant was measured at 450 nm.

[2] = system: Escherichia coli ATCC 25922; assay type: cell-based; conditions: Gram-negative, 18-24 hrs at 37° C.
From the text: (§1) The following strains were used: • Gram-negative bacteria: Escherichia coli ATCC 25922, Pseudomonas aeruginosa ATCC 27853, Acinetobacter baumannii ATCC 19606, Klebsiella pneumoniae ATCC 13883, • Gram-positive bacteria: Staphylococcus aureus ATCC 25923, multi-drug resistant Staphylococcus aureus ATCC BAA-44, Streptococcus pyogenes ATCC 19615, Listeria ivanovii Li4pVS2, Enterococcus faecalis ATCC 29212,
(§2) For each strain, a standard inoculum of approximately 10^6 bacteria/mL (exponential growth phase) was prepared. To this end, a colony isolated on LB agar previously inoculated with one of the strains was cultured in 4 ml of LB broth medium, except for S. pyogenes and L. ivanovii which were grown in BHI (Brain Heart Infusion) from a colony isolated on BHI agar. Liquid cultures were then incubated for 2 to 3 hrs at 37° C. with shaking for the bacteria to reach exponential growth phase. After centrifugation, most of the bacterial suspensions were diluted in Mueller-Hinton (MH) broth medium to an OD630nm of 0.01, which corresponds to a concentration of approximately 10^6 cfu/mL (cfu: colony forming unit). A different medium was used for E. faecalis (LB) and for S. pyogenes and L. ivanovii (BHI).
(§3) The minimum inhibitory concentration (MIC) of each peptide was determined by a test of growth inhibition in broth medium. […] The test was performed in a sterile 96-well microtiter plate. A series of increasing concentrations of peptide (2 to 400 μM) was first prepared in sterile MilliQ water. 50 μL of each peptide concentration were mixed into the well with 50 μL of bacterial suspension (10^6 cfu/ml). The microtiter plate was then incubated for 18-24 hrs at 37° C. with shaking. Bacterial growth was determined by measuring OD at 630 nm (turbidity) on a plate reader. Tests were carried out in triplicate for each peptide concentration and at least three independent experiments were performed to determine the MIC value.
(§4) The growth inhibition negative control was obtained by replacing the solution containing the peptide with 50 μL of sterile MilliQ water. The positive control allowing the complete inhibition of bacterial growth was obtained by replacing the solution containing the peptide with 50 μL, of 0.7% formaldehyde.

Staphylococcus aureus = assay type: cell-based; conditions: Gram-positive, 18-24 hrs at 37° C.
From the text: as §1, §2, §3, §4

[3] = system: Streptococcus pyogenes ATCC 19615; assay type: cell-based; conditions: Gram-positive, BHI, 18-24 hrs at 37° C.
From the text: as §1, §2, §3, §4

[4] = system: Acinetobacter baumannii ATCC 19606; assay type: cell-based; conditions: Gram-negative, 18-24 hrs at 37° C.
From the text: as §1, §2, §3, §4

[5] = system: Listeria ivanovii Li4pVS2; assay type: cell-based; conditions: Gram-positive, BHI, 18-24 hrs at 37° C.
From the text: as §1, §2, §3, §4

[6] = system: Pseudomonas aeruginosa ATCC 27853; assay type: cell-based; conditions: Gram-negative, 18-24 hrs at 37° C.
From the text: as §1, §2, §3, §4

[7] = system: Enterococcus faecalis ATCC 29212; assay type: cell-based; conditions: Gram-positive, LB, 18-24 hrs at 37° C.
From the text: as §1, §2, §3, §4

[8] = system: Klebsiella pneumoniae ATCC 13883; experiment: MIC, growth inhibition in broth medium; assay type: cell-based; conditions: Gram-negative, 18-24 hrs at 37° C.
From the text: as §1
as §2, with “A different medium was used for E. faecalis (LB) and for S. pyogenes and L. ivanovii (BHI).” left out
The minimum inhibitory concentration (MIC) of each peptide was determined by a test of growth inhibition in broth medium. […] Bacterial growth was determined by measuring OD at 630 nm (turbidity) on a plate reader. […]

[9] = system: Gram-positive and Gram-negative bacteria; conditions: cited from earlier work

Compound	HC50 at 1 h [1] [µM]	MIC EC [2] [µM]	MIC SA (Staphylococcus aureus) [µM]	MIC SP [3] [µM]	MIC AB [4] [µM]	MIC LI [5] [µM]	MIC PA [6] [µM]	MIC EF [7] [µM]	MIC KP [8] [µM]	CC50 at 1 h [1] [µM]	antimicrobial activity [9]
CC[C@H](C)[C@H](NC(=O)[C@H](CCCNC(=N)N)NC(=O)[C@H](CO)NC(=O)[C@H](CC(C)C)NC(=O)[C@H](Cc1ccccc1)NC(=O)[C@H](Cc1ccccc1)NC(=O)[C@@H](N)Cc1ccccc1)C(=O)N[C@@H](Cc1ccccc1)C(N)=O [compound 2]	> 200	50 (≈ 53.8 µg/mL)	25 (≈ 26.9 µg/mL)	25 (≈ 26.9 µg/mL)	>100	50 (≈ 53.8 µg/mL)	>100	100 (≈ 108 µg/mL)	–	–	–
CC[C@H](C)[C@H](NC(=O)[C@H](CCCNC(=N)N)NC(=O)[C@H](CCCNC(=N)N)NC(=O)[C@H](CC(C)C)NC(=O)[C@H](CCc1ccccc1)NC(=O)[C@H](Cc1ccccc1)NC(=O)[C@@H](N)Cc1ccccc1)C(=O)N[C@@H](Cc1ccccc1)C(N)=O [compound 19]	170	12.5 (≈ 14.5 µg/mL)	6.25 (≈ 7.24 µg/mL)	12.5 (≈ 14.5 µg/mL)	25 (≈ 29 µg/mL)	–	25 (≈ 29 µg/mL)	–	–	–	–
N=C(N)NCCC[C@H](NC(=O)[C@H](CCCNC(=N)N)NC(=O)[C@H](Cc1ccccc1)NC(=O)[C@H](Cc1ccccc1)NC(=O)[C@H](Cc1ccccc1)NC(=O)[C@@H](N)Cc1ccccc1)C(=O)N[C@@H](Cc1ccccc1)C(=O)N[C@@H](Cc1ccccc1)C(N)=O [compound 39]	> 200	12.5 (≈ 15.2 µg/mL)	6.25 (≈ 7.58 µg/mL)	3 (≈ 3.64 µg/mL)	25 (≈ 30.3 µg/mL)	12.5 (≈ 15.2 µg/mL)	12.5 (≈ 15.2 µg/mL)	50 (≈ 60.6 µg/mL)	–	–	–
N=C(N)NCCC[C@H](NC(=O)[C@H](CCCNC(=N)N)NC(=O)[C@H](Cc1ccccc1)NC(=O)[C@H](CCCNC(=N)N)NC(=O)[C@H](Cc1ccccc1)NC(=O)[C@@H](N)Cc1ccccc1)C(=O)N[C@@H](Cc1ccccc1)C(=O)N[C@@H](Cc1ccccc1)C(N)=O [compound 50]	> 200	–	6.25 (≈ 7.63 µg/mL)	6.25 (≈ 7.63 µg/mL)	100 (≈ 122 µg/mL)	–	12.5 (≈ 15.3 µg/mL)	100 (≈ 122 µg/mL)	–	–	–
N=C(N)NCCC[C@H](NC(=O)[C@H](CCCNC(=N)N)NC(=O)[C@H](Cc1ccccc1)NC(=O)[C@H](Cc1ccccc1)NC(=O)[C@H](CCc1ccccc1)NC(=O)[C@@H](N)Cc1ccccc1)C(=O)N[C@@H](Cc1ccccc1)C(=O)N[C@@H](Cc1ccccc1)C(N)=O [compound 51] (H-F[hPhe]FFRRFF-NH2; N-terminus assumed)	–	–	–	–	–	–	–	–	25 (≈ 30.7 µg/mL)	159	–
N=C(N)NCCC[C@H](NC(=O)[C@H](CCCNC(=N)N)NC(=O)[C@H](Cc1ccccc1)NC(=O)[C@H](CCc1ccccc1)NC(=O)[C@H](Cc1ccccc1)NC(=O)[C@@H](N)Cc1ccccc1)C(=O)N[C@@H](Cc1ccccc1)C(=O)N[C@@H](Cc1ccccc1)C(N)=O [compound 53]	140	12.5 (≈ 15.3 µg/mL)	3 (≈ 3.68 µg/mL)	6.25 (≈ 7.67 µg/mL)	12.5 (≈ 15.3 µg/mL)	–	12.5 (≈ 15.3 µg/mL)	50 (≈ 61.3 µg/mL)	–	–	–
FF(α-MeF)LSRIFamide (FF[αMeF]LSRIF-NH2; N-terminus assumed; SMILES CC[C@H](C)[C@H](NC(=O)[C@H](CCCNC(=N)N)NC(=O)[C@H](CO)NC(=O)[C@H](CC(C)C)NC(=O)[C@](C)(Cc1ccccc1)NC(=O)[C@H](Cc1ccccc1)NC(=O)[C@@H](N)Cc1ccccc1)C(=O)N[C@@H](Cc1ccccc1)C(N)=O) [SEQ ID No 7, excluded known SHf analog]	–	–	–	–	–	–	–	–	–	–	strong activity against Gram-positive and Gram-negative bacteria, including Klebsiella pneumoniae
FFFFKRFF-NH2 [compound 42]	> 200	–	6.25	12.5	–	–	12.5	>100	–	–	–
FFFFRKFF-NH2 [compound 43]	> 200	–	–	12.5	12.5	–	12.5	100	–	–	–
FFFFSRFF-NH2 [compound 34]	> 200	>100	12.5	6.25	>100	25	>100	100	–	–	–
FFFRRRFF-NH2 [compound 38]	> 200	25	–	12.5	100	–	25	>100	–	–	–
FFRRFFFF-NH2 [compound 41]	> 200	12.5	6.25	6.25	12.5	–	12.5	50	–	–	–
FRFFRRFF-NH2 [compound 49]	> 200	–	–	25	–	–	6.25	>100	–	–	–
FRFRFRFF-NH2 [compound 55]	> 200	–	3	12.5	–	–	–	>100	–	–	–
FRFRFRFR-NH2 [compound 56]	> 200	3	–	6.25	25	–	–	30	–	–	–
RFFFRRFF-NH2 [compound 72]	> 200	–	6.25	25	100	–	12.5	>100	–	–	–
